Assay results as given in patent publication US20240424053A1, “METHODS AND COMPOSITIONS FOR PROVIDING MYOCARDIAL PROTECTION AND TREATING MYOCARDIAL STRESS AND FIBROSIS” (Tufts Medical Center, Inc., priority 2021, published 2024).
“Also recorded” adds a separate entry of the source. Like-named read-outs stand apart in the source and are kept apart here. Where a SMILES comes first, the peptide text is derived from it. The star is where a group is joined. Palmitoyl = CCCCCCCCCCCCCCCC(=O)*

Tests used:
PAR1 [1] = biological target: T1, PAR1 (Mus musculus, UniProt P30558); assay: echocardiography after 3 days reperfusion following 30 min myocardial ischemia in mice; type: in vivo; details: 10 mg/kg sc once daily, n=4
T1 construct: endogenous in cells; host or cells: male C57BL/6N mice, in vivo
T1 sequence (P30558 22-430): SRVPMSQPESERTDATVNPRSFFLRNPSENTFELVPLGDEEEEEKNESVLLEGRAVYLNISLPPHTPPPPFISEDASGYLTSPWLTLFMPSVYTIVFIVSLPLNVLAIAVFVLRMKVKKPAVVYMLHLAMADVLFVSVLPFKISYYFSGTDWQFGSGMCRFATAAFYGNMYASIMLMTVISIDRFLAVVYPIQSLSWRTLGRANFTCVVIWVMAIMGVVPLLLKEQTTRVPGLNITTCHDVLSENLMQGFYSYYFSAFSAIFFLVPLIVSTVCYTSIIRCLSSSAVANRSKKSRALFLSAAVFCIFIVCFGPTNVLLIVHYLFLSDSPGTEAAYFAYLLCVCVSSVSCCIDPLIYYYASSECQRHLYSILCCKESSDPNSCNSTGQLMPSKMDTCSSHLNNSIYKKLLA
Description: A role of PAR1 in directly mediating cardiac ischemic myonecrosis—independent of established platelet-dependent effects (Strande et al., Basic Res. Cardiol. 102(4):350-358, 2007)—was also examined. […] Mice (n=7) were treated with vehicle or 10 mg/kg PZ-128 (subcutaneous; sc) just prior to ischemic injury. As shown in FIG. 1a-d, PZ-128-treated mice had 51-62% reductions in mean cardiac Infarct Area (p<0.01), Area At Risk (p<0.01), and Total Ischemic Area (p<0.0001) compared to vehicle-treated mice. […] Using echocardiography after 3 days of reperfusion, there was a significant increase in left ventricular mass (p<0.05) in vehicle compared to PZ-128 treated cohorts, with no difference in left ventricular mass between baseline and 3 days in the PZ-128 cohort (FIG. 2). […] Previous pharmacokinetic studies of subcutaneously administered PZ-128 in mice were the basis of this 10 mg/kg dose in mice (Cisowski et al., Am. J. Pathol. 179(1):513-523, 2011), selected to match the 0.3-0.5 mg/kg doses administered in humans.
A subset of male C57BL6N mice from each group subjected to 30 min left coronary artery ischemia (FIGS. 1A-1E) were reperfused for 3 days (n=4 vehicle, n=4 10 mg/kg PZ-128 sc once daily).

PAR1 [2] = biological target: T2, PAR1 (Homo sapiens, UniProt P25116); assay: NT-proBNP plasma levels in heart failure subset of TRIP-PCI; type: in vivo; details: 24 hours after single dose (0.3 or 0.5 mg/kg combined), HF patients n=5, P=0.02
T2 construct: delivered intravenously in 100 patients with coronary artery disease (CAD) and acute coronary syndrome (ACS) undergoing cardiac catheterization; endogenous in cells; host or cells: patients of the TRIP-PCI trial (platelets ex vivo; whole body in vivo)
T2 sequence (P25116 22-425): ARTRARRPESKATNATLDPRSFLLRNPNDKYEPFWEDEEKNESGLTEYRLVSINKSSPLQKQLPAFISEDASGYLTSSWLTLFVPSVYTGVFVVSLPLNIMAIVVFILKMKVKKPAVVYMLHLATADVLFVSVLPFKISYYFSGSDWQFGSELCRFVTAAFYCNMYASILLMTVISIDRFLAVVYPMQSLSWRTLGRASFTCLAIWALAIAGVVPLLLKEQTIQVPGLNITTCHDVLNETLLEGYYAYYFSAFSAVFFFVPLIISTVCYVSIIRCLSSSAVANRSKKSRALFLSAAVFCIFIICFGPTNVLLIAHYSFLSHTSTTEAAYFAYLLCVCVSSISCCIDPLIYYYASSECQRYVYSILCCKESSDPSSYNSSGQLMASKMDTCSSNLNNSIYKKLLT
Description: Data was analyzed by 2-sided paired T-tests. Normal levels of NT-proBNP ≤125 pg/mL.
The TRIP-PCI (Thrombin Receptor Inhibitory Pepducin in PCI) Phase 2 trial (Kuliopulos et al., Arterioscler. Thromb. Vasc. Biol. 40(12):2990-3003, 2020), which enrolled a subset of patients with HF, was conducted to assess the safety, target engagement, and efficacy of PZ-128 in patients undergoing cardiac catheterization with intent to perform percutaneous coronary intervention (PCI). As explained above, in this randomized, double-blind, placebo-controlled, phase 2 trial, 100 patients were randomly assigned (2:1) to receive PZ-128 (0.3 mg/kg or 0.5 mg/kg), or placebo in a two-hour infusion initiated just prior to the start of cardiac catheterization. […]
In the BNP multinational study of 1568 patients presenting with dyspnea to the emergency department, BNP and NT-proBNP were the single most accurate predictors of diagnosis and severity of ADHF, and are used as a well-validated surrogate clinical efficacy endpoint in human trials (Ibrahim et al., Circ. Res. 123(5):614-629, 2018; Ibrahim et al., Circ. Heart Fail. 9(9), 2016). NT-proBNP levels were measured at baseline and 24 hours after the PZ-128 or placebo infusion was initiated and the cardiac catheterization procedure completed in the subset of patients with heart failure. […]

PAR1 [3] = biological target: T2, PAR1; details: cited from earlier work
PAR1 [4] = biological target: T2, PAR1; details: cited from earlier work; remark: listed apart in the source

CCCCCCCCCCCCCCCC(=O)N[C@@H](CCCCN)C(=O)N[C@@H](CCCCN)C(=O)N[C@@H](CO)C(=O)N[C@@H](CCCNC(=N)N)C(=O)N[C@@H](C)C(=O)N[C@@H](CC(C)C)C(=O)N[C@@H](Cc1ccccc1)C(N)=O [PZ-128, Palmitate-KKSRALF-NH2] (Palmitoyl-KKSRALF-NH2)
ejection fraction at 3 days compared to baseline (PAR1 [1]): no significant reductions; also recorded: maintained baseline | fractional shortening at 3 days compared to baseline (PAR1 [1]): no significant reductions; also recorded: maintained baseline | left ventricular mass, baseline vs 3 days (PAR1 [1]): no difference; also recorded: no significant differences | change in NT-proBNP levels (PAR1 [2]): significant mean drop | overall safety and tolerability (PAR1 [3]; 0.3 and 0.5 mg/kg, single 2-h intravenous infusion, 100 patients): safe and well-tolerated | hazard ratio of a MACE/myonecrosis event versus placebo (PAR1 [3]; PZ-128 treated groups, nonsignificant decrease): 0.81 | major adverse coronary events (MACE) (PAR1 [3]; at 30 days, combined PZ-128 dose groups (placebo 6%, P=0.13)): 0% | major adverse coronary events (MACE) (PAR1 [3]; at 90 days, combined PZ-128 dose groups (placebo 6%, P=0.29)): 2% | MACE and myocardial injury within 30 days (PAR1 [3]; subgroup with elevated baseline cardiac troponin I (placebo 83%, P=0.02)): 31% | primary safety endpoint: bleeding vs vehicle (PAR1 [3]; up to 30 days posttreatment): not significantly different | PAR1 aggregation response recovered (PAR1 [4]; at 14 days post-dose): 50% | time at which inhibition of SFLLRN-induced platelet aggregation could be detected (PAR1 [4]; post-dose): ≤ 1 h | time of peak inhibition of SFLLRN-induced platelet aggregation (PAR1 [4]; post-dose): 24 h
